Read-outs that look alike come from different tables or passages of the source.

One data set relates to CHO-K1 cells. The experiment in a line: Toxicity in RRA (loss of luciferase signal). As to conditions: toxicity = loss of signal (<0.75 fold increase).
A further data set relates to beta amyloid production. Put plainly: Repressor Release Assay (RRA). Format: cell-based. As to conditions: for fold induction at 10 µg/mL / fold induction at 3 µg/mL / fold induction at 20 µg/mL: read-out: APPI Fold Increase; for fold induction at 3 µg/mL: Conc 3 μg/ml; for APPI % of Example #98: relative to Example 98. The method in brief:
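CHO-K1 cells transiently co-transfected with pRSVO-luc and an APP-lacI construct, replated, then treated in duplicate for 36-48 h at 37 °C, 5% CO2. Compounds diluted in 25 mM Hepes, with Hepes/1% DMSO as diluent control. Luciferase read-out in relative light units; toxicity scored 1 non-toxic, 0 toxic.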

Setting [1] is: Conc 10 μg/ml, luciferase activity over diluent control.
[2] abbreviates: luciferase activity over diluent control.
The mark [3] stands for this setting: Conc 20 μg/ml, luciferase activity over diluent control.

Protocol for CHO-K1 cells: The beta amyloid inhibitory activity of the compounds of the present invention was determined using the Repressor Release Assay (RRA).
“Fold Increase” refers to the amount of luciferase activity (measured in relative light units) over diluent control. “SEM” refers to the standard error of the mean for fold increase.

Consider `C=CC(O)[C@@H](NS(=O)(=O)c1cccc(Cl)c1)[C@@H](C)CC` (stereo partly drawn) [Example 193, 3-chloro-N-{(1 S)-2-hydroxy-1-[(1S)-1-methylpropyl]-3-butenyl}benzenesulfonamide], for which the “(%)APPI Toxicity” value with CHO-K1 cells (Conc 10 μg/ml) is 1 (1=non-toxic). For the same molecule, the fold induction at 10 µg/mL in the data set with beta amyloid production (setting [1]) was 1.78.
Regarding `C=CCCC(O)(CCC=C)[C@@H](NS(=O)(=O)c1cccc(Cl)c1)[C@@H](C)CC` [Example 260, N-{(1S)-2-(3-butenyl)-2-hydroxy-1-[(1S)-1-methylpropyl]-5-hexenyl}-3-chlorobenzenesulfonamide], the “(%)APPI Toxicity” value in the data set with CHO-K1 cells (Conc 3 μg/ml) and in the data set with CHO-K1 cells (Conc 10 μg/ml) was 1 (1=non-toxic) throughout. Besides, the fold induction at 3 µg/mL in the data set on beta amyloid production (setting [2]) was 1.5. Also, the fold induction at 10 µg/mL in the data set with beta amyloid production (setting [1]) is 6.23.
Regarding `CC[C@H](C)[C@H](NS(=O)(=O)c1ccccc1F)C(O)(c1ccc(F)cc1)c1ccc(F)cc1` [Example 266, N-{(1S,2S)-1-[bis(4-fluorophenyl)(hydroxy)methyl]-2-methylbutyl}-2-fluorobenzenesulfonamide], in the data set with CHO-K1 cells (Conc 10 μg/ml), the “(%)APPI Toxicity” value is listed as 1 (1=non-toxic). The fold induction at 10 µg/mL with beta amyloid production (setting [1]) was 1.57.
Consider `CC[C@H](C)[C@H](NS(=O)(=O)c1ccc(F)cc1)C(O)c1ccccc1C` (stereo partly drawn) [Example 131, 4-fluoro-N{(1S,2S)-1-[hydroxy-(2-methylphenyl)methyl]-2-methylbutyl}benzenesulfonamide], for which the “(%)APPI Toxicity” value in the data set on CHO-K1 cells (Conc 10 μg/ml) is given as 1 (1=non-toxic). Moreover, in the data set with beta amyloid production (setting [1]), the “APPI Fold Increase” value was found to be 1.65 fold. The “APPI % of Example #98” value in the data set with beta amyloid production (Conc 10 μg/ml) is on record as 64.57%.
Regarding `CC[C@@H](CO)NS(=O)(=O)c1cccc(Cl)c1` [Example 108, 3-chloro-N-[(1S)-1-(hydroxymethyl)propyl]benzene sulfonamide], the “(%)APPI Toxicity” value in the data set on CHO-K1 cells (Conc 3 μg/ml) is recorded as 1 (1=non-toxic). For the same molecule, the fold induction at 3 µg/mL in the data set on beta amyloid production (setting [2]) stood at 1.66.
As for `C=CCC(O)(CC=C)[C@@H](NS(=O)(=O)c1ccc(Cl)cc1)[C@@H](C)CC` [Example 228, N-{(1S)-2-allyl-2-hydroxy-1-[(1S)-1-methylpropyl]-4-pentenyl}-4-chloro benzenesulfonamide], in the data set on CHO-K1 cells (Conc 10 μg/ml), the “(%)APPI Toxicity” value was 1 (1=non-toxic). For the same molecule, the “APPI Fold Increase” value with beta amyloid production (setting [1]) worked out at 1.56 fold. In the data set on beta amyloid production (Conc 10 μg/ml), the “APPI % of Example #98” value is on record as 71.57%.
With `CC(C)C[C@@H](CO)NS(=O)(=O)c1ccccc1F` [Example 109, 2-fluoro-N-[(1S)-1-(hydroxymethyl)-3-methylbutyl]benzenesulfonamide], in the data set with CHO-K1 cells (Conc 20 μg/ml), the “(%)APPI Toxicity” value was 1 (1=non-toxic). In the data set with beta amyloid production (setting [3]), the fold induction at 20 µg/mL stood at 1.9.
For the molecule `CC[C@H](C)[C@H](NS(=O)(=O)c1ccccc1F)C(O)(c1ccc(OC)cc1)c1ccc(OC)cc1` [Example 269, 2-fluoro-N-((1S,2S)-1-{hydroxy[bis(4-methoxyphenyl)]methyl}-2-methylbutyl)benzenesulfonamide], the “(%)APPI Toxicity” value with CHO-K1 cells (Conc 10 μg/ml) is recorded as 1 (1=non-toxic). Further, the fold induction at 10 µg/mL in the data set on beta amyloid production (setting [1]) was found to be 1.58.
As for `CC[C@H](C)[C@@H](CO)NS(=O)(=O)c1cc(Br)ccc1Br` [Example 21, 2,5-dibromo-N-[(1S,2S)-1-(hydroxymethyl)-2-methylbutyl]benzenesulfonamide], the “(%)APPI Toxicity” value in the data set with CHO-K1 cells (Conc 20 μg/ml) is reported as 1 (1=non-toxic). Moreover, in the data set with beta amyloid production (setting [3]), the fold induction at 20 µg/mL was 1.6.
For `CC[C@H](C)[C@@H](CO)NS(=O)(=O)c1ccccc1F` [Example 11, 2-fluoro-N-[(1S,2S)-1-(hydroxymethyl)-2-methylbutyl]benzenesulfonamide], the “(%)APPI Toxicity” value in the data set with CHO-K1 cells (Conc 20 μg/ml) was 1 (1=non-toxic). For the same molecule, in the data set with beta amyloid production (setting [3]), the fold induction at 20 µg/mL was determined as 2.3.
Consider `CC[C@H](C)[C@H](NS(=O)(=O)c1ccc(Cl)cc1)C(C)O` (stereo partly drawn) [Example 165, 4-Chloro-N-[(1S,2S)-1-(hydroxyethyl)-2-methylbutyl]benzenesulfonamide], for which, in the data set on CHO-K1 cells (Conc 10 μg/ml), the “(%)APPI Toxicity” value is listed as 1 (1=non-toxic). For the same molecule, in the data set on beta amyloid production (setting [1]), the fold induction at 10 µg/mL is 2.05.
`CC(C)[C@@](C)(CO)NS(=O)(=O)c1ccc(Br)cc1` [Example 34, 4-bromo-N-[(1 S)-1-(hydroxymethyl)-1,2-dimethylpropyl]benzenesulfonamide]: the “(%)APPI Toxicity” value in the data set on CHO-K1 cells (Conc 20 μg/ml) is given as 1 (1=non-toxic). Besides, in the data set with beta amyloid production (setting [3]), the fold induction at 20 µg/mL was found to be 4.2.
Take `CC[C@H](C)[C@H](NS(=O)(=O)c1ccc(Br)cc1)C(C)(C)O` [Example 211]: the “(%)APPI Toxicity” value in the data set with CHO-K1 cells (Conc 10 μg/ml) is 1 (1=non-toxic). Moreover, the fold induction at 10 µg/mL in the data set with beta amyloid production (setting [1]) is 2.09.
For `C=CC(O)[C@@H](NS(=O)(=O)c1ccc(Cl)cc1)[C@@H](C)CC` (stereo partly drawn) [Example 174, 4-chloro-N-{(1S)-2-hydroxy-1-[(1S)-1-methylpropyl]-3-butenyl}benzenesulfonamide], the “(%)APPI Toxicity” value in the data set on CHO-K1 cells (Conc 10 μg/ml) is given as 1 (1=non-toxic). Besides, the fold induction at 10 µg/mL with beta amyloid production (setting [1]) came out at 2.1.
For the molecule `CC[C@H](C)[C@H](NS(=O)(=O)c1cccc(Cl)c1)C(O)c1ccc(Cl)cc1` (stereo partly drawn) [Example 196, 3-chloro-N-{(1S,2S)-1-[(4-chlorophenyl)(hydroxy)methyl]-2-methylbutyl}benzenesulfonamide], the “(%)APPI Toxicity” value with CHO-K1 cells (Conc 10 μg/ml) is recorded as 1 (1=non-toxic). Besides, the fold induction at 10 µg/mL in the data set on beta amyloid production (setting [1]) is 1.78.
With `CC[C@H](C)[C@H](NS(=O)(=O)c1ccc(F)cc1)C(O)CCC1OCCCO1` (stereo partly drawn) [Example 140, N-{(1S)-4-(1,3-dioxan-2-yl)-2-hydroxy-1-[(1S)-1-methylpropyl]butyl}-4-fluorobenzenesulfonamide], in the data set on CHO-K1 cells (Conc 10 μg/ml), the “(%)APPI Toxicity” value is reported as 1 (1=non-toxic). Further, the fold induction at 10 µg/mL in the data set on beta amyloid production (setting [1]) was found to be 1.52.
In the same order, the values of `CC[C@H](C)[C@H](NS(=O)(=O)c1ccc(Br)cc1)C(C)O` (stereo partly drawn) [Example 145, 4-bromo-N-[(1S,2S)-1-(1-hydroxyethyl)-2-methylbutyl]benzenesulfonamide] are 1 (1=non-toxic) and 3.9.
Take `CC(c1ccccc1)C(CO)NS(=O)(=O)c1ccc(Br)cc1` (stereo not drawn) [Example 35, 4-bromo-N-[-1-(hydroxymethyl)-2-phenylpropyl]benzenesulfonamide]: the “(%)APPI Toxicity” value with CHO-K1 cells (Conc 20 μg/ml) is listed as 1 (1=non-toxic). In addition, the fold induction at 20 µg/mL in the data set on beta amyloid production (setting [3]) stood at 2.4.
Turning to `CCCCCCC(O)(CCCCCC)[C@@H](NS(=O)(=O)c1cccc(Cl)c1)[C@@H](C)CC` [Example 249, 3-chloro-N-{(1S)-2-hexyl-2-hydroxy-1-[(1S)-1-methylpropyl]octyl}benzenesulfonamide], the “(%)APPI Toxicity” value in the data set on CHO-K1 cells (Conc 10 μg/ml) is given as 1 (1=non-toxic). In addition, the fold induction at 10 µg/mL in the data set with beta amyloid production (setting [1]) came out at 1.9.
Turning to `CC[C@H](C)[C@@H](CO)N(CC1CCC1)S(=O)(=O)c1ccc(Cl)cc1` [Example 44, 4-chloro-N-(cyclobutylmethyl)-N-[(1S,2S)-1-(hydroxymethyl)-2-methylbutyl] benzenesulfonamide], the “(%)APPI Toxicity” value with CHO-K1 cells (Conc 20 μg/ml) was 1 (1=non-toxic). Moreover, in the data set with beta amyloid production (setting [3]), the “APPI Fold Increase” value worked out at 2.6 fold. For the same molecule, in the data set with beta amyloid production (Conc 20 μg/ml), the “APPI % of Example #98” value was found to be 95.7%.
As for `O=S(=O)(N[C@H](CO)c1ccccc1)c1ccc(Br)cc1` [Example 101, 4-bromo-N-[(1S)-2-hydroxy-1-phenylethyl]benzenesulfonamide], the “(%)APPI Toxicity” value with CHO-K1 cells (Conc 20 μg/ml) was 1 (1=non-toxic). The fold induction at 20 µg/mL with beta amyloid production (setting [3]) is 1.6.
For `CC[C@H](C)[C@H](NS(=O)(=O)c1ccc(Cl)cc1)C(O)c1ccccc1C` (stereo partly drawn) [Example 171, 4-chloro-N-{(1S,2S)-1-[hydroxy(2-methylphenyl)methyl]-2-methylbutyl}benzenesulfonamide], the “(%)APPI Toxicity” value with CHO-K1 cells (Conc 10 μg/ml) is 1 (1=non-toxic). For the same molecule, the fold induction at 10 µg/mL with beta amyloid production (setting [1]) was found to be 1.54.
In the same order, the values of `CCCCCC(O)(CCCCC)[C@@H](NS(=O)(=O)c1ccccc1F)[C@@H](C)CC` [Example 262, 2-fluoro-N-{(1S)-2-hydroxy-1-[(1S)-1-methylpropyl]-2-pentylheptyl}benzenesulfonamide] are 1 (1=non-toxic) and 2.2.
On to `CC[C@H](C)[C@@H](CO)N(Cc1ccc(OC)c(OC)c1)S(=O)(=O)c1ccc(Cl)cc1` [Example 45, 4-chloro-N-(3,4-dimethoxybenzyl)-N-[(1S,2S)-1-(hydroxymethyl)-2-methylbutyl]benzenesulfonamide], for which the “(%)APPI Toxicity” value with CHO-K1 cells (Conc 20 μg/ml) is reported as 1 (1=non-toxic). Moreover, the fold induction at 20 µg/mL in the data set with beta amyloid production (setting [3]) was 1.5.
On the same counts, the results for `CCCC(CO)NS(=O)(=O)c1ccc(Br)cc1` (stereo not drawn) [Example 104, 4-bromo-N-[1-(hydroxymethyl)butyl]benzenesulfonamide] are 1 (1=non-toxic) and 1.5.
`CCC(O)[C@@H](NS(=O)(=O)c1ccc(F)cc1)[C@@H](C)CC` (stereo partly drawn) [Example 135, 4-fluoro-N-{(1S)-2-hydroxy-1-[(1S)-1-methylpropyl]butyl}benzenesulfonamide]: in the data set with CHO-K1 cells (Conc 10 μg/ml), the “(%)APPI Toxicity” value is 1 (1=non-toxic). Besides, the fold induction at 10 µg/mL in the data set with beta amyloid production (setting [1]) was found to be 1.91.
Consider `CCCCCC(O)(CCCCC)[C@@H](NS(=O)(=O)c1ccc(F)cc1)[C@@H](C)CC` [Example 237, 4-fluoro-N-{(1S)-2-hydroxy-1-[(1S)-1-methylpropyl]-2-pentylheptyl}benzenesulfonamide], for which the “(%)APPI Toxicity” value with CHO-K1 cells (Conc 10 μg/ml) was 1 (1=non-toxic). In addition, in the data set on beta amyloid production (setting [1]), the fold induction at 10 µg/mL came to 6.05.
In the same order, the values of `CCCCC(O)(CCCC)[C@@H](NS(=O)(=O)c1cccc(Cl)c1)[C@@H](C)CC` [Example 251, N-{(1S)-2-butyl-2-hydroxy-1-[(1S)-1-methylpropyl]hexyl}-3-chlorobenzenesulfonamide] are 1 (1=non-toxic) and 3.4.
As to `CCC[C@H](CC(C)C)[C@@H](CO)NS(=O)(=O)c1ccc(Cl)cc1` [Example 56, 4-chloro-N-[(1S,2R)-1-(hydroxymethyl)-4-methyl-2-propylpentyl]benzenesulfonamide], the “(%)APPI Toxicity” value in the data set with CHO-K1 cells (Conc 20 μg/ml, 1=non-toxic, 0=toxic) was 1 (1=non-toxic). The fold induction at 20 µg/mL in the data set on beta amyloid production (Conc 20 μg/ml, luciferase activity (RLU) over diluent control) was found to be 3.6.
